According to patent publication US8703199B2, “Pharmaceutical compositions of adsorbates of amorphous drug” (Bend Research, Inc., priority 2001, dated 2014):
Blank lines part the entries; values can stand above or below the molecule they belong to.

Key:
Type in all cases: physicochemical
[1] = in vitro dissolution test, microcentrifuge method, Drug 4 in PBS; parameters: AUC / AUC90: concentration or dose not given beside the values
Experimental: The tubes were placed in a 37° C. temperature-controlled chamber, and 1.8 mL phosphate buffered saline (PBS) at pH 6.5 and 290 mOsm/kg was added. The solutions were quickly mixed using a vortex mixer for about 60 seconds, and then centrifuged at 13,000 G at 37° C. for […]. The resulting supernatant solution was then sampled and diluted 1:5 (by volume) with methanol. Diluted samples were analyzed by high-performance liquid chromatography (HPLC) at a UV absorbance of 245 nm using a Phenomenex Kromasil C4 column and a mobile phase of 45% (0.2% H3PO4)/55% acetonitrile. After sampling, the contents of the tubes were mixed on the vortex mixer and allowed to stand undisturbed at 37° C. until the next sample was taken. Samples were collected at 4, 10, 20, 40, 90, and 1200 minutes. […]
The adsorbate of Example 23 was evaluated in the in vitro dissolution test described in Example 22. In this test, 45 mg of the adsorbate of Example 23 was added to the microcentrifuge tubes used in the test. Samples for this test were collected at 4, 10, 20, 40, 90, and 1200 minutes.

[2] = in vitro dissolution test, microcentrifuge method, Drug 3 in 0.5 wt % MFD solution
Experimental: The adsorbate of Example 17 was evaluated in an in vitro dissolution test as in Example 2 using 1.44 mg of the adsorbate of […], or 0.36 mg of crystalline Drug 3 (Control 3) in a microcentrifuge tube with 1.8 ml of 0.5 wt % MFD solution. Samples were analyzed by HPLC at a UV absorbance of 254 nm using a Phenomex ODS 20 column and a mobile phase consisting of 60% 0.02 M KH2PO4(pH 3.0)/40% acetonitrile.
(§1) The drug/substrate adsorbate of Example 35 was evaluated in an in vitro dissolution test using the procedure described in Example 18, except that 1.44 mg of the adsorbate, or 0.36 mg of Control 3B, was added to a microcentrifuge tube containing 1.8 mL 0.5 wt % MFD solution at pH 6.5.
as §1, with “drug/concentration-enhancing polymer/substrate” for “drug/substrate”, “37” for “35”, “1.96” for “1.44”, “0.39” for “0.36”, “3A,” for “3B,”

[3] = in vitro dissolution test, microcentrifuge method, Drug 2 in PBS (alone or with Pluronic F-127); parameters: AUC / AUC90: concentration or dose not given beside the values; settings: for AUC / Drug 2 Concentration: PBS pH 6.5
Experimental: The tubes were placed in a 37° C. temperature-controlled chamber, and 1.8 mL phosphate buffered saline (PBS) at pH 6.5 and 290 mOsm/kg was added. The solutions were quickly mixed using a vortex mixer for about 60 seconds, and then centrifuged at 13,000 G at 37° C. for […]. The resulting supernatant solution was then sampled and diluted 1:5 (by volume) with methanol. Diluted samples were analyzed by high-performance liquid chromatography (HPLC) at a UV absorbance of 245 nm using a Phenomenex Kromasil C4 column and a mobile phase of 45% (0.2% H3PO4)/55% acetonitrile. After sampling, the contents of the tubes were mixed on the vortex mixer and allowed to stand undisturbed at 37° C. until the next sample was taken. Samples were collected at 4, 10, 20, 40, 90, and 1200 minutes.
This example illustrates that combining concentration-enhancing polymer with a drug/substrate adsorbate results in improved concentration enhancement. The adsorbate of Example 9, consisting of 25 wt % Drug 2 and 75 wt % CAB-O-SIL M-5P, was evaluated in an in vitro dissolution test using the procedure describe in Example 2, except that 7.2 mg of the adsorbate, or 1.8 mg of Control 2B, was added to a microcentrifuge tube containing 1.8 mL PBS alone, or 1.8 mL PBS with 3.6 mg of the concentration-enhancing polymer polyoxyethylene-polyoxypropylene block copolymer (Pluronic® F-127, available from BASF Corp.) HPLC analysis of Drug 2 was performed as described in Example 7. […]

[4] = in vitro dissolution test, microcentrifuge method, Drug 2 in 0.5 wt % MFD solution; settings: for AUC / Drug 2 Concentration: 0.5 wt % MFD solution pH 6.5
Experimental: The adsorbate of Example 6 and the crystalline drug of Control 2A were evaluated in an in vitro dissolution test using a microcentrifuge method as in Example 2. In this test, 9 mg of the adsorbate of Example 6, or 1.8 mg of Control 2A, was added to a microcentrifuge tube. The tubes were placed in a 37° C. temperature-controlled chamber, and 1.8 mL of 0.5 wt % MFD solution at pH 6.5 and 290 mOsm/kg was added. The samples were quickly mixed using a vortex mixer for about 60 seconds. The samples were centrifuged at 13,000 G at 37° C. for 1 minute. The resulting supernatant solution was then sampled and diluted 1:5 (by volume) with methanol. Diluted samples were analyzed by HPLC at a UV absorbance of 256 nm using a Waters Symmetry C8 column and a mobile phase consisting of 15% (0.2% H3PO4)/85% methanol. The contents of the tubes were mixed on the vortex mixer and allowed to stand undisturbed at 37° C. until the next sample was taken. Samples were collected at 4, 10, 20, 40, 90, and 1200 minutes. […]

[5] = nuclear magnetic resonance (NMR) test of dissolved Drug 2 in deuterated MFD solution; settings: after equilibration for 3 days
Experimental: The adsorbate of Example 9 and the crystalline drug of Control 2A were evaluated using a nuclear magnetic resonance (NMR) test. In this test, 0.690 mg of the adsorbate of Example 9, or 0.174 mg of Control 2, was added to a microcentrifuge tube. The tubes were placed in a 37° C. temperature-controlled chamber, and 1.7 mL for Example 9, or 1.8 mL for Control 2A, of 2 wt % deuterated MFD solution (d-MFD) at pH 6.5, 37° C., and 290 mOsm/kg was added. The samples were quickly mixed using a vortex mixer for 60 seconds. […] The supernatant was then carefully transferred to an 8 mm glass NMR tube for Example 9. […]
Fluorine spectra of the sample were recorded at 282.327 MHz on a Varian Gemini 2000, 300 MHz NMR equipped with a Nalorac 8 mm indirect detection probe. […] Drug resonances were integrated relative to the internal standard peak and the drug concentration determined. The given experiment time was calculated from the time the solvent was added to the solid sample until half of the time the spectrum had been acquired by the NMR. For example, when the spectra has been recorded for 2 hours after the sample was equilibrated for 30 minutes the time listed for the NMR result is 90 minutes. […]
The adsorbates of Example 13 and Example 14 were evaluated using the nuclear magnetic resonance (NMR) test described in Example 11. […]

[6] = accelerated storage test of physical stability (PXRD)
Experimental: The stability of Example 1 adsorbate was evaluated in an accelerated storage test. The adsorbate was stored under elevated temperature and humidity conditions to increase the rate of physical changes occurring in the material in order to simulate a longer storage interval in a typical storage environment. Samples of the adsorbate and Control 1B were stored at 40° C./75% relative humidity (RH). Samples were analyzed using a powder X-ray diffraction (PXRD) technique using a Bruker AXS D8 Advance diffractometer as follows. The X-ray tube (KCu, 1.54184 Å) was operated at a voltage of 45 kV and a current of 40 mA with the beam focused through a Göbel mirror and a series of slits into a line focus. Diffractograms were typically collected over the 2□ range of 4° to 40° with a step size of 0.02°/step. Data were collected for a minimum time of 2.4 sec/step. Scans were obtained by holding the tube at a constant angle (to keep the illuminated area of the sample constant) and scanning a scintillation-counter detector fitted with a thin film collimator through 2□. […]
Samples of the adsorbate of Example 9 were assessed for physical stability by storing them for 12 weeks at 50° C./75% RH. […]
The physical stability of the adsorbate of Example 23 was evaluated by storing samples of the adsorbate at 40° C. and 75% relative humidity and periodically withdrawing samples and analyzing them by PXRD.

[7] = 1200 min, 0.5 wt % MFD solution

SMILES: COc1ccc2c(c1)c(CC(=O)O)c(C)n2C(=O)c1ccc(Cl)cc1 [Control 4, Indomethacin]
AUC ([1]; 0 min): 0 µg·min/mL
Drug 4 Concentration ([1]; 0 min): 0 μgA/mL
AUC ([1]; 4 min): 630 µg·min/mL
Drug 4 Concentration ([1]; 4 min): 320 μgA/mL
AUC ([1]; 10 min): 2,600 min * μg/mL
Drug 4 Concentration ([1]; 10 min): 340 μgA/mL
AUC ([1]; 20 min): 7,300 min * μg/mL
Drug 4 Concentration ([1]; 20 min): 610 μgA/mL
AUC ([1]; 40 min): 8,100 min * μg/mL
Drug 4 Concentration ([1]; 40 min): 460 μgA/mL
AUC ([1]; 90 min): 41,700 min * μg/mL
Drug 4 Concentration ([1]; 90 min): 480 μgA/mL
AUC ([1]; 1200 min): 527,700 min * μg/mL
Drug 4 Concentration ([1]; 1200 min): 400 μgA/mL
AUC90 ([1]; Drug 4): 41,700 min * μg/mL

SMILES: O=C1Cc2cc(CCN3CCN(c4nsc5ccccc45)CC3)c(Cl)cc2N1 [Control 3A]
AUC ([2]; 0 min, 0.5 wt % MFD solution): 0 µg·min/mL
Drug 3 Concentration ([2]; 0 min, 0.5 wt % MFD solution, 0.36 mg crystalline drug added): 0 μgA/mL
Drug 3 Concentration ([2]; 1200 min, 0.5 wt % MFD solution, 0.36 mg crystalline drug added): 5 μgA/mL
Drug 3 Concentration ([2]; 1200 min, 0.5 wt % MFD solution, 0.39 mg crystalline drug added, pH 6.5): 9 μgA/mL
C1200 ([2]; Drug 3, 0.5 wt % MFD solution): 9 μgA/mL
Cmax,90 ([2]; Drug 3, 0.5 wt % MFD solution): 3000 ng/mL

SMILES: O=C1Cc2cc(CCN3CCN(c4nsc5ccccc45)CC3)c(Cl)cc2N1 [Control 3B]
AUC ([2]; 0 min, 0.5 wt % MFD solution): 0 µg·min/mL
Drug 3 Concentration ([2]; 0 min, 0.5 wt % MFD solution): 0 μgA/mL
AUC ([2]; 4 min, 0.5 wt % MFD solution): 0 µg·min/mL
Drug 3 Concentration ([2]; 4 min, 0.5 wt % MFD solution): 2 μgA/mL
AUC ([2]; 10 min, 0.5 wt % MFD solution): 0 µg·min/mL
Drug 3 Concentration ([2]; 10 min, 0.5 wt % MFD solution): 2 μgA/mL
AUC ([2]; 20 min, 0.5 wt % MFD solution): 0 µg·min/mL
Drug 3 Concentration ([2]; 20 min, 0.5 wt % MFD solution): 2 μgA/mL
AUC ([2]; 40 min, 0.5 wt % MFD solution): 100 µg·min/mL
Drug 3 Concentration ([2]; 40 min, 0.5 wt % MFD solution): 2 μgA/mL
AUC ([2]; 90 min, 0.5 wt % MFD solution): 200 µg·min/mL
Drug 3 Concentration ([2]; 90 min, 0.5 wt % MFD solution): 2 μgA/mL
AUC [2, 7]: 2,400 min * μg/mL
Drug 3 Concentration [2, 7]: 2 μgA/mL
AUC90 ([2]; Drug 3, 0.5% MFD): 200 µg·min/mL
C1200 ([2]; Drug 3, 0.5 wt % MFD solution): 2 μgA/mL

Next, values leading:

AUC ([3]; 0 min): 0 µg·min/mL
Drug 2 Concentration ([3]; 0 min): <1 μgA/mL
AUC ([3]; 4 min): <2 µg·min/mL
Drug 2 Concentration ([3]; 4 min): <1 μgA/mL
AUC ([3]; 10 min): <8 µg·min/mL
Drug 2 Concentration ([3]; 10 min): <1 μgA/mL
AUC ([3]; 20 min): <18 µg·min/mL
Drug 2 Concentration ([3]; 20 min): <1 μgA/mL
AUC ([3]; 40 min): <38 µg·min/mL
Drug 2 Concentration ([3]; 40 min): <1 μgA/mL
AUC ([3]; 90 min): <88 µg·min/mL
Drug 2 Concentration ([3]; 90 min): <1 μgA/mL
AUC ([3]; 1200 min): <1,200 min * μg/mL
Drug 2 Concentration ([3]; 1200 min): <1 μgA/mL
AUC90 ([3]; Drug 2, PBS): <88 µg·min/mL
C1200 ([3]; Drug 2, PBS): <1 μgA/mL
SMILES: CCOC(=O)N1c2ccc(C(F)(F)F)cc2[C@@H](N(Cc2cc(C(F)(F)F)cc(C(F)(F)F)c2)C(=O)OC)C[C@H]1CC [Control 2B, [2R,4S] 4-[(3,5-bis-trifluoromethyl-benzyl)-methoxycarbonyl-amino]-2-ethyl-6-trifluoromethyl-3,4-dihydro-2H-quinoline-1-carboxylic acid ethyl ester]

AUC ([4]; 0 min): 0 µg·min/mL
Drug 2 Concentration ([4]; 0 min): 0 µg/mL
AUC ([4]; 4 min): 6 µg·min/mL
Drug 2 Concentration ([4]; 4 min): 3 µg/mL
AUC ([4]; 10 min): 21 µg·min/mL
Drug 2 Concentration ([4]; 10 min): 2 µg/mL
AUC ([4]; 20 min): 71 µg·min/mL
Drug 2 Concentration ([4]; 20 min): 8 µg/mL
AUC ([4]; 40 min): 190 µg·min/mL
Drug 2 Concentration ([4]; 40 min): 4 µg/mL
AUC ([4]; 90 min): 570 µg·min/mL
Drug 2 Concentration ([4]; 90 min): 11 µg/mL
AUC ([4]; 1200 min): 14,700 min * μg/mL
Drug 2 Concentration ([4]; 1200 min): 15 µg/mL
AUC90 ([4]; Drug 2, 0.5 wt % MFD solution): 570 µg·min/mL
Cmax,90 ([4]; Drug 2, 0.5 wt % MFD solution): 11000 ng/mL
dissolved Drug 2 concentration [5]: 13 μgA/mL
SMILES: CCOC(=O)N1c2ccc(C(F)(F)F)cc2[C@@H](N(Cc2cc(C(F)(F)F)cc(C(F)(F)F)c2)C(=O)OC)C[C@H]1CC [Control 2A, [2R,4S] 4-[(3,5-bis-trifluoromethyl-benzyl)-methoxycarbonyl-amino]-2-ethyl-6-trifluoromethyl-3,4-dihydro-2H-quinoline-1-carboxylic acid ethyl ester]

crystallization rate ([6]; 4 days at 40° C. and 75% relative humidity): 20 %/day
crystallinity of the drug ([6]; after 4 days of storage at 40° C. and 75% relative humidity, PXRD): more than 80%
SMILES: COc1ccc2c(c1)c(CC(=O)O)c(C)n2C(=O)c1ccc(Cl)cc1 [amorphous control, Indomethacin]
